Experimental data published in EP3697380B1, “ORAL CARE PREPARATIONS COMPRISING CHLORHEXIDINE AND ARGININE OR THEIR SALTS” (priority 2019, dated 2020).

Test: Stability of chlorhexidine in simplified formulations by HPLC-UV after storage at 60°C
Assay type: physicochemical
Details: result in words; formulations with arginine versus without, 60°C for 42 days
Description: The following simplified formulations were used for these studies: […]
The stability of the formulations was measured by HPLC-UV after storage at 60°C for 42 days. The formulations were stored in PET bottles with PP caps.
Compositions 1-4 include arginine as a stabilising agent. […] In particular, compositions 1-4 and compositions 5-7 differ only in the presence or absence of arginine.

For `N=C(N)NCCCC(N)C(=O)O` (stereo not shown) [arginine, 2-amino-5-guanidinopentanoic acid], the “stability of the chlorhexidine” value was “improved the stability”.
